The target in one data set is MMP-9h (Homo sapiens (Human), UniProt P14780). The experiment in a line: Inhibition constant (Ki) on MMP-9h. The data set is classed as biochemical. The following applies: read-out: Ki MMP-9h; human MMP-9. The method in brief:
(§1)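 Human MMPs; Ki by published enzyme-inhibition method.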

The target in a further data set is MMP-3h (Homo sapiens (Human), UniProt P08254). Kind of data set: Inhibition constant (Ki) on MMP-3h. Conditions: read-out: Ki MMP-3h; human MMP-3. The data set is classed as biochemical. The method in brief:
as §1

In data set [1] the target is T1, MMP-12h (Homo sapiens (Human), UniProt P39900). The experiment in a line: Inhibition constant (Ki) on MMP-12h. The data set is classed as biochemical. Conditions: read-out: Ki MMP-12h; human MMP-12.
Data set [2] addresses T1, MMP-12h. Conditions: reported by Devel et al., J. Biol. Chem. 2006; read-out: inhibition constant Ki for human MMP-12; cited from earlier work.
The next data set relates to human MMPs. The following applies: reported by Devel et al., J. Biol. Chem. 2006; cited from earlier work.
The target of a further data set is MMP-2h (Homo sapiens (Human), UniProt P08253). The experiment in a line: Inhibition constant (Ki) on MMP-2h. The following applies: read-out: Ki MMP-2h; human MMP-2. The data set is classed as biochemical. A digest of the protocol: as §1
The target in the next data set is MMP-8h (Homo sapiens (Human), UniProt P22894). The experiment in a line: Inhibition constant (Ki) on MMP-8h. It counts as biochemical. The following applies: read-out: Ki MMP-8h; human MMP-8.
A further data set has as its target MMP-14h (Homo sapiens (Human), UniProt P50281). The experiment in a line: Inhibition constant (Ki) on MMP-14h. It counts as biochemical. Conditions: read-out: Ki MMP-14h; human MMP-14. A digest of the protocol: as §1
The target of a further data set is MMP-13h (Homo sapiens (Human), UniProt P45452). The experiment in a line: Inhibition constant (Ki) on MMP-13h. It counts as biochemical. Conditions: read-out: Ki MMP-13h; human MMP-13. The method in brief: as §1
The target in another data set is MMP-10h (Homo sapiens (Human), UniProt P09238). The experiment in a line: Inhibition constant (Ki) on MMP-10h. It counts as biochemical. The following applies: read-out: Ki MMP-10h; human MMP-10.
Data set [3] can be described thus: Determination of the plasma concentration in mice after infusion. The following applies: mouse, intravenous, 10 mg/kg.

Where two headings read alike, the source gives them in different places.

T1 sequence (P39900 106-470): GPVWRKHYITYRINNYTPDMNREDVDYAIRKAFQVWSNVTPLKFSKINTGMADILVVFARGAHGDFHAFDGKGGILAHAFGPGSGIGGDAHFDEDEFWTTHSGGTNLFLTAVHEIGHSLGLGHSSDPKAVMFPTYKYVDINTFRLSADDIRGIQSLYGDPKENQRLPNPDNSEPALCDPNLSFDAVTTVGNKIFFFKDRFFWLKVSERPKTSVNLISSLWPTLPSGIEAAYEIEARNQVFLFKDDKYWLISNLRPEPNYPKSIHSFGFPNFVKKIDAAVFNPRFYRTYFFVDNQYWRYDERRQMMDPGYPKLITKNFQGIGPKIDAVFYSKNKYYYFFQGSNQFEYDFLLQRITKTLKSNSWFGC
Chain of MMP-3h (P08254 100-477): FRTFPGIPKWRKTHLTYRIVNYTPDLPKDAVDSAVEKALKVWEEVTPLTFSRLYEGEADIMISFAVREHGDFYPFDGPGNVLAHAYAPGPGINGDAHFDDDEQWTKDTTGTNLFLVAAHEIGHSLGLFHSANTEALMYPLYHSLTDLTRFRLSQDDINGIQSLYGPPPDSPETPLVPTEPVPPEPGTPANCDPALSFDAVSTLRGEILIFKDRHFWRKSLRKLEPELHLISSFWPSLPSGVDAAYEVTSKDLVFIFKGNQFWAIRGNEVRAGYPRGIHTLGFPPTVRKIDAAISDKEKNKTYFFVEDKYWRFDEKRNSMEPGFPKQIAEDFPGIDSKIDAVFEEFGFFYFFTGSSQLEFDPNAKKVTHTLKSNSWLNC
Chain of MMP-8h (P22894 101-467): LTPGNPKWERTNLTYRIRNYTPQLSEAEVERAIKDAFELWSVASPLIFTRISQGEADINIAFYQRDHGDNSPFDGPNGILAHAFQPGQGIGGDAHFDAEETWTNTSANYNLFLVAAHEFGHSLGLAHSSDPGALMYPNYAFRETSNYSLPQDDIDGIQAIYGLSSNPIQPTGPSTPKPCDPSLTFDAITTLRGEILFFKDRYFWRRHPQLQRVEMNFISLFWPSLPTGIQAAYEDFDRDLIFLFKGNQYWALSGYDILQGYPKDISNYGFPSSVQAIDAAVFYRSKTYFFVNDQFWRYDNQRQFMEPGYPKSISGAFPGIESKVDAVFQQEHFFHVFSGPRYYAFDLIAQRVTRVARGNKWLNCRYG
Chain of MMP-9h (P14780 94-707): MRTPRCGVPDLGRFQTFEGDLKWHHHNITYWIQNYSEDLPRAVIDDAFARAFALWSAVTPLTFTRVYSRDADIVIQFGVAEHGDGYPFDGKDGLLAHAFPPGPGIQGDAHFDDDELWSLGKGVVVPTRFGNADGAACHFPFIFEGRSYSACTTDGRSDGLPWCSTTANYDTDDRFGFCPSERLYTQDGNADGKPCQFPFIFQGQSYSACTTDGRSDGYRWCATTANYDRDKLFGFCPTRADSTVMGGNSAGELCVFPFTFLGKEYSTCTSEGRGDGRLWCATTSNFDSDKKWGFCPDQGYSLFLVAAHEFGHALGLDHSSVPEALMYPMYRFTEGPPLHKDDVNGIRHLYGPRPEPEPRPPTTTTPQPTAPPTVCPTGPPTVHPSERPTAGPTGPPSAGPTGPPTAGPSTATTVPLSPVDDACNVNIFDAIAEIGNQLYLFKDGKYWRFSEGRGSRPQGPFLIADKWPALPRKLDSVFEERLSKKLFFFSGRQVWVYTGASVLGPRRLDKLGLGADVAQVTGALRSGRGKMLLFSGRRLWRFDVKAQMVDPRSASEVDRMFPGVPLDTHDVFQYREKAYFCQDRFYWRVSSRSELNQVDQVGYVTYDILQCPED
Chain of MMP-10h (P09238 99-476): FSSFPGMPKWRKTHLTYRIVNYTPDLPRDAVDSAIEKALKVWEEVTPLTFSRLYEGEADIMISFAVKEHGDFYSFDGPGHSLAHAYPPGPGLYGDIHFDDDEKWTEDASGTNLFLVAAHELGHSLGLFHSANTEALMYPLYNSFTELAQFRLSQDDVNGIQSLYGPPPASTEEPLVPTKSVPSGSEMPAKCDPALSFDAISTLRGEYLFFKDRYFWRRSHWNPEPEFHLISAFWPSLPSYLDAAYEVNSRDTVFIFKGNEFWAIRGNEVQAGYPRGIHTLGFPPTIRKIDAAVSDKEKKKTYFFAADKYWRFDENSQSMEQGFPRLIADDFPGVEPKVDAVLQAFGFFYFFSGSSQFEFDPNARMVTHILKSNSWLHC
Chain of MMP-2h (P08253 110-660): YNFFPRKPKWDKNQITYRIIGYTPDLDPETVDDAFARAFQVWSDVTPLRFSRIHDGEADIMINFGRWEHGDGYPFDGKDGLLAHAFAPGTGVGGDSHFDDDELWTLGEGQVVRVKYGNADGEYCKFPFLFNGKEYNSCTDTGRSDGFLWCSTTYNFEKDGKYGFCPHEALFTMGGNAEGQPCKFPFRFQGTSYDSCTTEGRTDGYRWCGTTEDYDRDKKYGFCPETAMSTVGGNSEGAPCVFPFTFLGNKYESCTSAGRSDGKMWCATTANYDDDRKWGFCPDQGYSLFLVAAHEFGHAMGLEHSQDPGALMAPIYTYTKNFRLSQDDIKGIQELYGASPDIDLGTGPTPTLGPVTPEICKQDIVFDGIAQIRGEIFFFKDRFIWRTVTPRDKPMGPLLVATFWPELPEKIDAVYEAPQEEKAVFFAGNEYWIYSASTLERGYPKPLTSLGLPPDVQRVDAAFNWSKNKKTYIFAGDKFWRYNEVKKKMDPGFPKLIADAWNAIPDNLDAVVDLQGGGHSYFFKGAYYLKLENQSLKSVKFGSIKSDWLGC

Regarding `NC(=O)[C@H](CCC(=O)O)NC(=O)[C@H](CCC(=O)O)NC(=O)[C@H](Cc1cc(-c2ccc(-c3cccc(Cl)c3)cc2)no1)CP(=O)(O)c1ccc(Br)cc1` [RXP470, reference compound], the Ki (as a rule, a dissociation constant, usually derived from enzyme kinetics or from competition with a known ligand) was 850 nM on MMP-9h; 58 nM at MMP-3h; 0.2 nM on MMP-12h [1]; 0.4 nM at MMP-12h [2]; 72 nM on MMP-2h; 77 nM at MMP-8h. Moreover, the values for the Ki on MMP-14h, at MMP-13h and at MMP-10h were 80 nM, 13 nM and 8.3 nM, respectively. Further, the “potency toward MMPs 1, 2, 3, 7, 8, 9, 11, 13 and 14 compared with MMP-12” value in the data set on human MMPs is on record as “two to three orders of magnitude less powerful”.

`Cc1ccc(-c2ccc(CCC(=O)N[C@@H](CCC(=O)O)C(=O)N[C@@H](CCC(=O)O)C(N)=O)cc2)s1` [Compound 91, (S)-5-amino-4-((S)-4-carboxy-2-(3-(4-(5-methylthiophen-2-yl)phenyl)propanamido)butanamido)-5-oxopentanoic acid]: the Ki was 242 nM at MMP-9h; more than 1000 nM at MMP-3h; 1.84 nM at MMP-12h [1]; 97 nM at MMP-2h; 10.3 nM on MMP-8h; more than 1000 nM at MMP-14h. The results for the Ki at MMP-13h and at MMP-10h were 564 nM and 353 nM, respectively. Moreover, the concentration at 5 min in data set [3] came to 1000 nM.

These data come from patent US8691753B2 (priority 2009, dated 2014).
